From article PMC9578396, “Intrinsic Antibacterial Activity of Xeruborbactam In Vitro: Assessing Spectrum and Mode of Action” (Antimicrobial Agents and Chemotherapy, 2022)
Where two headings read alike, the source gives them in different places.

Key:
Type in all cases: cell-based
Streptococcus pneumoniae = test: MIC, Streptococcus pneumoniae; details: Streptococcus pneumoniae, read-out: MIC
From the text: (§1) Bacterial isolates were subjected to broth microdilution susceptibility testing, performed according to Clinical and Laboratory Standards Institute (CLSI) methods ([46]), using panels prepared in-house. Meropenem was purchased from Sandoz, and all other antibiotics were from Sigma-Aldrich. Xeruborbactam was synthesized at Qpex Biopharma, San Diego, CA. Avibactam was purchased from eNovation Chemicals LLC, Bridgewater, NJ, USA; zidebactam was from MedKoo Biosciences, Inc., Morrisville, NC, and nacubactam was from Advanced ChemBlocks, Hayward, CA. Durlobactam was synthesized at Acme Bioscience, Palo Alto, CA, USA.

Klebsiella pneumoniae = test: microbe, parasite or virus in culture; details: Klebsiella pneumoniae, read-out: MIC
From the text: (§2) (i) Panels of engineered bacterial strains containing various combinations of porin and efflux mutations were used. The construction of all the strains used in the study is described in detail in references, [44], and [45]. (ii) KPC-producing clinical isolates and their derivatives that lost KPC plasmids were used also. These strains and their origins are described in the Table S2. (iii) Finally, KPC-producing clinical isolates enriched in strains with porin mutations were used. The mutations identified include various deletions, insertions, nonsense mutations, and decreased expression. Most of the isolates were obtained from JMI Laboratories or International Health Management Associates (IHMA); they were collected in the course of global surveillance studies.
as §1, with “Meropenem was purchased from Sandoz, and all other antibiotics were from Sigma-Aldrich.” left out

Enterococcus faecalis = test: MIC, Enterococcus faecalis
From the text: as §1

Staphylococcus aureus = test: MIC, Staphylococcus aureus (MSSA, MRSA)
From the text: as §1

[1] = system: Enterobacter cloacae species complex; test: Broth microdilution MIC (CLSI), Enterobacter cloacae; details: Enterobacter cloacae, read-out: MIC
From the text: as §1

Escherichia coli = test: Broth microdilution MIC (CLSI), Escherichia coli; details: Escherichia coli, read-out: MIC
From the text: as §2
as §1, with “Meropenem was purchased from Sandoz, and all other antibiotics were from Sigma-Aldrich.” left out

Measured: MIC

C[C@H]1COc2c(N3CCN(C)CC3)c(F)cc3c(=O)c(C(=O)O)cn1c23 [Levofloxacin]
0.125 mg/L: Staphylococcus aureus; Staphylococcus aureus, ATCC 29213 / MSSA | Staphylococcus aureus; Staphylococcus aureus, MRSA | Staphylococcus aureus; Staphylococcus aureus, MSSA | Staphylococcus aureus; sa002, MSSA | Staphylococcus aureus; sa003, MSSA | Staphylococcus aureus; sa004, MSSA | Staphylococcus aureus; sa005, MSSA | Staphylococcus aureus; sa007, MSSA | Staphylococcus aureus; sa009, MSSA | Staphylococcus aureus; sa152, MRSA
0.5 mg/L: Streptococcus pneumoniae; sp001 | Streptococcus pneumoniae; sp002 | Streptococcus pneumoniae; sp005 | Streptococcus pneumoniae; sp006 | Streptococcus pneumoniae; sp008 | Streptococcus pneumoniae; sp123 | Enterococcus faecalis; efs003 | Enterococcus faecalis; efs026
0.06 mg/L: Klebsiella pneumoniae; strain KPM1026a | Staphylococcus aureus; Staphylococcus aureus, MSSA, sa006, MSSA, read-out: MIC
2 mg/L: Streptococcus pneumoniae; sp117 | Enterococcus faecalis; efs095 | Staphylococcus aureus; Staphylococcus aureus, MRSA, sa279, MRSA, read-out: MIC | Staphylococcus aureus; Staphylococcus aureus, MRSA, sa280, MRSA, read-out: MIC
1 mg/L: Streptococcus pneumoniae; sp003 | Streptococcus pneumoniae; sp004 | Streptococcus pneumoniae; sp007 | Streptococcus pneumoniae; sp009 | Streptococcus pneumoniae; sp118 | Streptococcus pneumoniae; sp119 | Streptococcus pneumoniae; sp120 | Streptococcus pneumoniae; sp121 | Streptococcus pneumoniae; sp125 | Streptococcus pneumoniae; sp126 | Enterococcus faecalis; efs004 | Enterococcus faecalis; efs005 | Enterococcus faecalis; efs006 | Enterococcus faecalis; efs007 | Enterococcus faecalis; efs073
16 mg/L: Enterococcus faecalis; efs072 | Enterococcus faecalis; efs093 | Staphylococcus aureus; Staphylococcus aureus, MRSA, sa148, MRSA, read-out: MIC | Staphylococcus aureus; Staphylococcus aureus, MRSA, sa151, MRSA, read-out: MIC | Staphylococcus aureus; Staphylococcus aureus, MRSA, sa153, MRSA, read-out: MIC
0.25 mg/L: Staphylococcus aureus; Staphylococcus aureus, MRSA, sa013, MRSA, read-out: MIC | Staphylococcus aureus; Staphylococcus aureus, MSSA, sa008, MSSA, read-out: MIC | Staphylococcus aureus; Staphylococcus aureus, MSSA, sa011, MSSA, read-out: MIC | Staphylococcus aureus; Staphylococcus aureus, MSSA, sa012, MSSA, read-out: MIC
32 mg/L: Streptococcus pneumoniae; sp122 | Enterococcus faecalis; efs071 | Enterococcus faecalis; efs090 | Enterococcus faecalis; efs091 | Enterococcus faecalis; efs092 | Enterococcus faecalis; efs094 | Enterococcus faecalis; efs096 | Staphylococcus aureus; Staphylococcus aureus, MRSA, sa278, MRSA, read-out: MIC | Staphylococcus aureus; Staphylococcus aureus, MRSA, sa281, MRSA, read-out: MIC
8 mg/L: Staphylococcus aureus; Staphylococcus aureus, MRSA, sa001, MRSA, read-out: MIC | Staphylococcus aureus; Staphylococcus aureus, MRSA, sa010, MRSA, read-out: MIC | Staphylococcus aureus; Staphylococcus aureus, MRSA, sa150, MRSA, read-out: MIC

CN(C)c1cc(NC(=O)CNC(C)(C)C)c(O)c2c1C[C@H]1C[C@H]3[C@H](N(C)C)C(O)=C(C(N)=O)C(=O)[C@@]3(O)C(O)=C1C2=O [Tigecycline]
2 mg/L: [1]; clinical isolate ECL1126, OmpK35 FN, OmpK36 FN | [1]; clinical isolate ECL1131, OmpK35 NF, OmpK36 FN
0.5 mg/L: Klebsiella pneumoniae; clinical isolate KP1074, OmpK35 NF, OmpK36 PFN (GD) | Escherichia coli; clinical isolate EC1078, OmpK35 NF, OmpK36 NF | Escherichia coli; clinical isolate EC1081, OmpK35 FN, OmpK36 FN
0.25 mg/L: Escherichia coli; clinical isolate EC1085, OmpK35 FN, OmpK36 FN | Escherichia coli; clinical isolate EC1121, OmpK35 NF, OmpK36 FN
0.125 mg/L: Escherichia coli; clinical isolate EC1088, OmpK35 FN, OmpK36 FN
1 mg/L: Klebsiella pneumoniae; clinical isolate KP1004, OmpK35 NF, OmpK36 FN | Klebsiella pneumoniae; clinical isolate KP1070, OmpK35 NF, OmpK36 FN | Klebsiella pneumoniae; clinical isolate KP1093, OmpK35 NF, OmpK36 PFN (GD) | Klebsiella pneumoniae; clinical isolate KP1251, OmpK35 NF, OmpK36 FN | Klebsiella pneumoniae; clinical isolate KP1274, OmpK35 FN, OmpK36 FN | Klebsiella pneumoniae; clinical isolate KP1463, OmpK35 NF, OmpK36 NF | Escherichia coli; clinical isolate EC1097, OmpK35 FN, OmpK36 FN | Escherichia coli; clinical isolate EC1098, OmpK35 NF, OmpK36 FN
4 mg/L: [1]; clinical isolate ECL1079, OmpK35 NF, OmpK36 NF | Klebsiella pneumoniae; clinical isolate KP1469, OmpK35 NF, OmpK36 NF | Klebsiella pneumoniae; clinical isolate KP1598, OmpK35 NF, OmpK36 PFN (GD) | Escherichia coli; clinical isolate EC1119, OmpK35 NF, OmpK36 NF
8 mg/L: [1]; clinical isolate ECL1057, OmpK35 FN, OmpK36 NF
